Earlier results, collected in PubChem BioAssay AID1259409 (Chemical Carcinogenesis Research Information System (CCRIS), 2018).

Test system: rodent chemically induced tumor inhibition, incidence and multiplicity
Assay: CCRIS tumor inhibitor studies
Settings: Route [Inhibitor]: ORAL

Cc1c(-c2cnccn2)ssc1=S
tumour outcome (control, treated, inhibition, significance) (Carcinogen: DIETHYLNITROSAMINE, 55-18-5, Dose [Inhibitor]: 0, 600 MG/KG DIET FOR DURATION OF STUDY BEGINNING 1 WK PRIOR TO CARCINOGEN TREATMENT (STUDY DURATION: 25 WK), Species: HAMSTER, Strain/Sex: SYRIAN/MALE, Target Tissue: Type of Lesion: TRACHEA: PAPILLOMA, Dose [Carcinogen]: 17.8 MG/KG BW 2/WK FOR 20 WK, Promoter: NONE USED): 100%, 95%, 5%, not significant | tumour outcome (control, treated, inhibition, significance) (Carcinogen: N-BUTYL-N(4-HYDROXYBUTYL)NITROSAMINE, 3817-11-6, Dose [Inhibitor]: 0, 250 MG/KG DIET FOR 6 MO BEGINNING 1 WK PRIOR TO CARCINOGEN TREATMENT (STUDY DURATION: 6 MO), Species: MOUSE, Strain/Sex: BDF/MALE, Target Tissue: Type of Lesion: URINARY BLADDER: CARCINOMA, Dose [Carcinogen]: 7.5 MG IN 0.1 ML ETHANOL:WATER (20:80) 1/WK FOR 8 WK, Promoter: NONE USED): 35/78 (45%), 23/76 (30%), 33%, p<0.05 | tumour outcome (control, treated, inhibition, significance) (Carcinogen: N-BUTYL-N-(4-HYDROXYBUTYL)NITROSAMINE, 3817-11-6, Dose [Inhibitor]: 0, 100 MG/KG DIET FOR 6 MO BEGINNING 1 WK PRIOR TO CARCINOGEN TREATMENT (STUDY DURATION: 6 MO), Species: MOUSE, Strain/Sex: BDF/MALE, Target Tissue: Type of Lesion: URINARY BLADDER: CARCINOMA, Dose [Carcinogen]: 7.5 MG IN 0.1 ML ETHANOL:WATER (20:80) 1 WK FOR 8 WK, Promoter: NONE USED): 27/70 (39%), 27/70 (39%), 0%, not significant | tumour outcome (control, treated, inhibition, significance) (Carcinogen: N-BUTYL-N-(4-HYDROXYBUTYL)NITROSAMINE, 3817-11-6, Dose [Inhibitor]: 0, 200 MG/KG DIET FOR 6 MO BEGINNING 1 WK PRIOR TO CARCINOGEN TREATMENT (STUDY DURATION: 6 MO), Species: MOUSE, Strain/Sex: BDF/MALE, Target Tissue: Type of Lesion: URINARY BLADDER: CARCINOMA, Dose [Carcinogen]: 7.5 MG IN 0.1 ML ETHANOL:WATER (20:80) 1/WK FOR 8 WK, Promoter: NONE USED): 30/73 (41%), 27/71 (38%), 7%, not calculated | tumour outcome (control, treated, inhibition, significance) (Carcinogen: N-BUTYL-N-(4-HYDROXYBUTYL)NITROSAMINE, 3817-11-6, Dose [Inhibitor]: 0, 500 MG/KG DIET FOR 76 D THEN 125 MG/KG DIET FOR DURATION OF STUDY (STUDY DURATION: 6 MO), Species: MOUSE, Strain/Sex: BDF/MALE, Target Tissue: Type of Lesion: URINARY BLADDER: CARCINOMA, Dose [Carcinogen]: 7.5 MG IN 0.1 ML ETHANOL:WATER (20:80) 1/WK FOR 8 WK, Promoter: NONE USED): 35/78 (45%), 23/78 (29%), 36%, p<0.05 | tumour outcome (control, treated, inhibition, significance) (Carcinogen: N-METHYL-N'-NITRO-N-NITROSOGUANIDINE, 70-25-7, Dose [Inhibitor]: 0, 0.02% IN DIET FOR 12 WK BEGINNING 1 WK PRIOR TO CARCINOGEN TREATMENT (STUDY DURATION: 80 WK), Species: RAT, Strain/Sex: WISTAR/MALE, Target Tissue: Type of Lesion: GLANDULAR STOMACH: ADENOCARCINOMA, Dose [Carcinogen]: 100 PPM IN DRINKING WATER FOR 10 WK, Promoter: NONE USED): 17/30 (57%), 11/30 (37%), 35%, not calculated | tumour outcome (control, treated, inhibition, significance) (Carcinogen: N-METHYL-N'-NITRO-N-NITROSOGUANIDINE, 70-25-7, Dose [Inhibitor]: 0, 0.04% IN DIET FOR 12 WK BEGINNING 1 WK PRIOR TO CARCINOGEN TREATMENT (STUDY DURATION: 80 WK), Species: RAT, Strain/Sex: WISTAR/MALE, Target Tissue: Type of Lesion: GLANDULAR STOMACH: ADENOCARCINOMA, Dose [Carcinogen]: 100 PPM IN DRINKING WATER FOR 10 WK, Promoter: NONE USED): 17/30 (57%), 5/30 (17%), 70%, p<0.01 | tumour outcome (control, treated, inhibition, significance) (Carcinogen: N-METHYL-N'-NITRO-N-NITROSOGUANIDINE, 70-25-7, Dose [Inhibitor]: 0, 0.04% IN DIET FOR 12 WK BEGINNING 1 WK PRIOR TO CARCINOGEN TREATMENT (STUDY DURATION: 81 WK), Species: RAT, Strain/Sex: WISTAR/MALE, Target Tissue: Type of Lesion: GLANDULAR STOMACH: ADENOCARCINOMA, Dose [Carcinogen]: 100 PPM IN DRINKING WATER FOR 10 WK, Promoter: NONE USED): 17/30 (57%), 5/30 (17%), 70%, p<0.01 | tumour outcome (control, treated, inhibition, significance) (Carcinogen: N-METHYL-N'-NITRO-NITROSOGUANIDINE, 70-25-7, Dose [Inhibitor]: 0, 0.02% IN DIET FOR 12 WK BEGINNING 1 WK PRIOR TO CARCINOGEN TREATMENT (STUDY DURATION: 81 WK), Species: RAT, Strain/Sex: WISTAR/MALE, Target Tissue: Type of Lesion: GLANDULAR STOMACH: ADENOCARCINOMA, Dose [Carcinogen]: 100 PPM IN DRINKING WATER FOR 10 WK, Promoter: NONE USED): 17/30 (57%), 11/30 (37%), 35%, not significant | outcome (Carcinogen: N-NITROSOBIS(2-OXOPROPYL)AMINE, 60599-38-4, Dose [Inhibitor]: 0, 300 MG/KG IN DIET FOR 28 WK BEGINNING 2 WK PRIOR TO CARCINOGEN TREATMENT (STUDY DURATION: 28 WK), Species: HAMSTER, Strain/Sex: SYRIAN/FEMALE, Target Tissue: Type of Lesion: PANCREAS: DUCTAL ADENOCARCINOMA, Dose [Carcinogen]: 15 MG/KG BW 1/WK FOR 12 WK, Promoter: NONE USED): 17/19 (89%), 14/16 (88%), 1 %, not significant | tumour outcome (control, treated, inhibition, significance) (Carcinogen: N-NITROSOBIS(2-OXOPROPYL)AMINE, 60599-38-4, Dose [Inhibitor]: 0, 600 MG/KG IN DIET FOR 28 WK BEGINNING 2 WK PRIOR TO CARCINOGEN TREATMENT (STUDY DURATION: 28 WK), Species: HAMSTER, Strain/Sex: SYRIAN/FEMALE, Target Tissue: Type of Lesion: PANCREAS: DUCTAL ADENOCARCINOMA, Dose [Carcinogen]: 15 MG/KG BW 1/WK FOR 12 WK, Promoter: NONE USED): 17/19 (89%), 9/15 (60%), 33%, p<0.05 | tumour outcome (control, treated, inhibition, significance) (Carcinogen: NITROSOBIS(2-OXOPROPYL)AMINE [60599-38-4], Dose [Inhibitor]: 200 PPM IN DIET FOR 4 WK BEGINNING 1 WK PRIOR TO FIRST CARCINOGEN DOSE (STUDY DURATION: 52 WK), Species: HAMSTER, Strain/Sex: SYRIAN/FEMALE, Target Tissue: Type of Lesion: GALL BLADDER: ADENOMA, Dose [Carcinogen]: 10 MG/KG BW 1X/WK FOR 3 WK (STUDY DURATION: 52 WK)): 13.3%, 21.7%, -63%, not significant | tumour outcome (control, treated, inhibition, significance) (Carcinogen: NITROSOBIS(2-OXOPROPYL)AMINE [60599-38-4], Dose [Inhibitor]: 200 PPM IN DIET FOR 4 WK BEGINNING 1 WK PRIOR TO FIRST CARCINOGEN DOSE (STUDY DURATION: 52 WK), Species: HAMSTER, Strain/Sex: SYRIAN/FEMALE, Target Tissue: Type of Lesion: KIDNEY: RENAL CELL ADENOMA, Dose [Carcinogen]: 10 MG/KG BW 1X/WK FOR 3 WK (STUDY DURATION: 52 WK)): 3.3%, 3.4%, -3%, not significant | tumour outcome (control, treated, inhibition, significance) (Carcinogen: NITROSOBIS(2-OXOPROPYL)AMINE [60599-38-4], Dose [Inhibitor]: 200 PPM IN DIET FOR 4 WK BEGINNING 1 WK PRIOR TO FIRST CARCINOGEN DOSE (STUDY DURATION: 52 WK), Species: HAMSTER, Strain/Sex: SYRIAN/FEMALE, Target Tissue: Type of Lesion: KIDNEY: RENAL CELL CARCINOMA, Dose [Carcinogen]: 10 MG/KG BW 1X/WK FOR 3 WK (STUDY DURATION: 52 WK)): 6.7%, 10.3%, -54%, not significant | tumour outcome (control, treated, inhibition, significance) (Carcinogen: NITROSOBIS(2-OXOPROPYL)AMINE [60599-38-4], Dose [Inhibitor]: 200 PPM IN DIET FOR 4 WK BEGINNING 1 WK PRIOR TO FIRST CARCINOGEN DOSE (STUDY DURATION: 52 WK), Species: HAMSTER, Strain/Sex: SYRIAN/FEMALE, Target Tissue: Type of Lesion: LIVER: CHOLANGIOCELLULAR ADENOMA, Dose [Carcinogen]: 10 MG/KG BW 1X/WK FOR 3 WK (STUDY DURATION: 52 WK)): 6.7%, 0.0%, 100%, not significant | outcome (Carcinogen: NITROSOBIS(2-OXOPROPYL)AMINE [60599-38-4], Dose [Inhibitor]: 200 PPM IN DIET FOR 4 WK BEGINNING 1 WK PRIOR TO FIRST CARCINOGEN DOSE (STUDY DURATION: 52 WK), Species: HAMSTER, Strain/Sex: SYRIAN/FEMALE, Target Tissue: Type of Lesion: LIVER: CHOLANGIOCELLULAR CARCINOMA, Dose [Carcinogen]: 10 MG/KG BW 1X/WK FOR 3 WK (STUDY DURATION: 52 WK)): 0.0%, 10.3%, -100%, not significant
